Experimental data: article PMC8617031, “Development of a BCL-xL and BCL-2 dual degrader with improved anti-leukemic activity,” (Nature Communications, 2021)
Several values for one entry are separate records, joined by “and”; a condition that tells them apart may be missing. Equal entries are not always repeated.

Tests used:
[1] = tested on: BCL-xL/PROTAC/VCB ternary complex (HiBit-BCL-xL, HaloTag-VHL); assay: NanoBRET intracellular ternary complex formation in 293T cells, BCL-xL; assay type: cell-based, human; settings: triplicate wells; for nanoBRET ratio (610/450, background-subtracted), Ave, Bcl-xl: Ave of Read2 and Read3
In short: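 293T cells were transfected with HiBit-BCL-xL or HiBit-BCL-2 plus HaloTag-VHL and incubated overnight with or without HaloTag NanoBRET 618 ligand in 4% FBS Opti-MEM. Serially diluted compounds were applied for 6 h at 37 °C. mBRET ratio from donor emission (450/50 nm) and acceptor emission (610 nm longpass) after Nano-Glo substrate.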

[2] = target: T1, BCL-2/PROTAC/VCB ternary complex (Homo sapiens, UniProt P10415+P40337); assay: AlphaLISA ternary complex formation, cell-free, BCL-2; assay type: binding; settings: for Alpha (Alpha Endpoint read, Bcl-2 ternary complex formation): raw plate signal, duplicate wells; for AlphaLISA signal, BCL-2/PROTAC/VCB: Fig. 2d raw Alpha reads
T1 construct: pGEX-6P-1-VHL(54-213) (pDL2200) was constructed through Gibson assembly method; made in house; host or cells: bacterial culture (LB broth, IPTG induction)
T1 sequence (P10415 1-211 limits assumed): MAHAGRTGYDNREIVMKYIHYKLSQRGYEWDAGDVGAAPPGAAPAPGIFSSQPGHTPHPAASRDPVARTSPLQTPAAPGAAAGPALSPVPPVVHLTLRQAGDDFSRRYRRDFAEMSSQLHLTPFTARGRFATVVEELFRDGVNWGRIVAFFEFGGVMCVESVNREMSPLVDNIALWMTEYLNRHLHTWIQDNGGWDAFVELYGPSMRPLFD
T1 sequence (P40337 54-213 limits assumed): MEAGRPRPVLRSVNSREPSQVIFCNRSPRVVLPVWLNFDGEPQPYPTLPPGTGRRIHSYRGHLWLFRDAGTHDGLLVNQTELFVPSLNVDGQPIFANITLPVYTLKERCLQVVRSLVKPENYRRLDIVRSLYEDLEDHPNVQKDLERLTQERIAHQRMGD
T1 sequence (Q15369 17-112 partner limits assumed): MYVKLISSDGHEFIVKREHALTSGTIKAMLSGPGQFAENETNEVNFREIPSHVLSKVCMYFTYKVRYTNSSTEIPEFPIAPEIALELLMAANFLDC
T1 sequence (Q15370 whole entry partner): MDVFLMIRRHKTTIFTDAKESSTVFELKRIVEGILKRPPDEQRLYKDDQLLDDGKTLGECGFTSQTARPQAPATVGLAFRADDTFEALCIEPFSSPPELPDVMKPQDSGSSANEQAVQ
Experimental: AlphaLISA assay was used to evaluate the in vitro ternary complex formation between target proteins (BCL-xL or BCL-2), PROTAC and E3 ligase (VCB complex). In each well, 5 nM His-tagged BCL-xL or BCL-2 proteins and 5 nM GST-VCB complex was incubated with varying concentrations of compounds in fourfold serial dilutions, to a final volume of 40 µl in a 96-well PCR plate. After incubation at room temperature for 30 min, 5 µl alpha glutathione-donor beads (Cat. No. 6765300, PerkinElmer) were added to each well (20 µg/ml final concentration) and incubated for another 15 min. Thereafter, 5 µL 6× His-acceptor beads were added to each well (20 µg/ml final concentration) and incubated for an additional 45 min at room temperature. Thereafter, 17 µl of each sample was transferred in adjacent wells of a 384-well proxy plate, and the plate was scanned using the Alpha program on Biotek’s Synergy Neo2 multimode plate reader. The data were expressed as average AlphaLISA signal and plotted against different concentrations of compounds using GraphPad Prism 9 software.

## Cc1ncsc1-c1ccc([C@H](C)NC(=O)[C@@H]2C[C@@H](O)CN2C(=O)[C@@H](NC(=O)CCCCCCC(=O)N2CCN(C[C@@]3(C)CCC(c4ccc(Cl)cc4)=C(CN4CCN(c5ccc(C(=O)NS(=O)(=O)c6ccc(N[C@H](CCN7CCOCC7)CSc7ccccc7)c(S(=O)(=O)C(F)(F)F)c6)cc5)CC4)C3)CC2)C(C)(C)C)cc1 [753a]
[1]; 0.004 uM
  nanoBRET ratio (610/450, background-subtracted), Ave, Bcl-xl: 6.588 and 5.267 and 6.114
  nanoBRET ratio (610/450, background-subtracted), Read2, Bcl-xl: 6.808 and 5.756 and 5.973
  nanoBRET ratio (610/450, background-subtracted), Read3, Bcl-xl: 6.368 and 4.777 and 6.254
[1]; 0.012 uM
  nanoBRET ratio (610/450, background-subtracted), Ave, Bcl-xl: 7.772 and 5.901 and 5.719
  nanoBRET ratio (610/450, background-subtracted), Read2, Bcl-xl: 8.034 and 6.13 and 5.719
  nanoBRET ratio (610/450, background-subtracted), Read3, Bcl-xl: 7.511 and 5.673 and 5.719
[1]; 0.111 uM
  nanoBRET ratio (610/450, background-subtracted), Ave, Bcl-xl: 7.6 and 7.528 and 6.707
  nanoBRET ratio (610/450, background-subtracted), Read2, Bcl-xl: 8.597 and 7.785 and 7.564
  nanoBRET ratio (610/450, background-subtracted), Read3, Bcl-xl: 6.603 and 7.27 and 5.849
[1]; 0.333 uM
  nanoBRET ratio (610/450, background-subtracted), Ave, Bcl-xl: 7.771 and 7.613 and 7.591
  nanoBRET ratio (610/450, background-subtracted), Read2, Bcl-xl: 8.649 and 8.045 and 7.293
  nanoBRET ratio (610/450, background-subtracted), Read3, Bcl-xl: 6.893 and 7.18 and 7.888
[1]; 1 uM
  nanoBRET ratio (610/450, background-subtracted), Ave, Bcl-xl: 6.777 and 6.861 and 6.637
  nanoBRET ratio (610/450, background-subtracted), Read2, Bcl-xl: 6.613 and 6.856 and 7.09
  nanoBRET ratio (610/450, background-subtracted), Read3, Bcl-xl: 6.94 and 6.866 and 6.184
[1]; 3 uM
  nanoBRET ratio (610/450, background-subtracted), Ave, Bcl-xl: 7.07 and 7.184 and 6.888
  nanoBRET ratio (610/450, background-subtracted), Read2, Bcl-xl: 7.24 and 8.026 and 7.182
  nanoBRET ratio (610/450, background-subtracted), Read3, Bcl-xl: 6.9 and 6.341 and 6.5933
[2]; Conc. 0.0762939 nM
  Alpha (Alpha Endpoint read, Bcl-2 ternary complex formation): 50534 and 53139
[2]; Conc. 0.305176 nM
  Alpha (Alpha Endpoint read, Bcl-2 ternary complex formation): 145058 and 154080
[2]; Conc. 1.2207 nM
  Alpha (Alpha Endpoint read, Bcl-2 ternary complex formation): 205372 and 217088
[2]; Conc. 4.88281 nM
  Alpha (Alpha Endpoint read, Bcl-2 ternary complex formation): 773602 and 780039
[2]; Conc. 19.5312 nM
  Alpha (Alpha Endpoint read, Bcl-2 ternary complex formation): 1990534 and 2015902
[2]; Conc. 78.125 nM
  Alpha (Alpha Endpoint read, Bcl-2 ternary complex formation): 2343633 and 2509831
[2]; Conc. 312.5 nM
  Alpha (Alpha Endpoint read, Bcl-2 ternary complex formation): 1692897 and 1765154
[2]; Conc. 1250 nM
  Alpha (Alpha Endpoint read, Bcl-2 ternary complex formation): 434318 and 434578
[2]; Conc. 5000 nM
  Alpha (Alpha Endpoint read, Bcl-2 ternary complex formation): 40362 and 44856
[2]; Conc. 20000 nM
  Alpha (Alpha Endpoint read, Bcl-2 ternary complex formation): 14264 and 11638

## CC1(C)CCC(c2ccc(Cl)cc2)=C(CN2CCN(c3ccc(C(=O)NS(=O)(=O)c4ccc(N[C@H](CCN5CCOCC5)CSc5ccccc5)c(S(=O)(=O)C(F)(F)F)c4)cc3)CC2)C1 [ABT263, navitoclax]
[2]; Conc. 0.0762939 nM
  Alpha (Alpha Endpoint read, Bcl-2 ternary complex formation): 13075 and 14039
[2]; Conc. 0.305176 nM
  Alpha (Alpha Endpoint read, Bcl-2 ternary complex formation): 25282 and 13828
[2]; Conc. 1.2207 nM
  Alpha (Alpha Endpoint read, Bcl-2 ternary complex formation): 26631 and 14952
[2]; Conc. 4.88281 nM
  Alpha (Alpha Endpoint read, Bcl-2 ternary complex formation): 23864 and 13192
[2]; Conc. 78.125 nM
  Alpha (Alpha Endpoint read, Bcl-2 ternary complex formation): 25354 and 12957
[2]; Conc. 1250 nM
  Alpha (Alpha Endpoint read, Bcl-2 ternary complex formation): 25045 and 14016
[2]; Conc. 20000 nM
  Alpha (Alpha Endpoint read, Bcl-2 ternary complex formation): 20320 and 11437

## Cc1ncsc1-c1ccc([C@H](C)NC(=O)[C@@H]2C[C@@H](O)CN2C(=O)[C@@H](NC(=O)CCCCCC(=O)N2CCN(CC[C@H](CSc3ccccc3)Nc3ccc(S(=O)(=O)NC(=O)c4ccc(N5CCN(CC6=C(c7ccc(Cl)cc7)CCC(C)(C)C6)CC5)cc4)cc3S(=O)(=O)C(F)(F)F)CC2)C(C)(C)C)cc1 [DT2216]
[2]; Conc. 0.0762939 nM
  Alpha (Alpha Endpoint read, Bcl-2 ternary complex formation): 20813 and 18426
[2]; Conc. 0.305176 nM
  Alpha (Alpha Endpoint read, Bcl-2 ternary complex formation): 25167 and 44180
[2]; Conc. 1.2207 nM
  Alpha (Alpha Endpoint read, Bcl-2 ternary complex formation): 134706 and 124477
[2]; Conc. 4.88281 nM
  Alpha (Alpha Endpoint read, Bcl-2 ternary complex formation): 167974 and 147424
[2]; Conc. 19.5312 nM
  Alpha (Alpha Endpoint read, Bcl-2 ternary complex formation): 637139 and 671757
[2]; Conc. 78.125 nM
  Alpha (Alpha Endpoint read, Bcl-2 ternary complex formation): 1569627 and 1815622
[2]; Conc. 312.5 nM
  Alpha (Alpha Endpoint read, Bcl-2 ternary complex formation): 1851330 and 1734079
[2]; Conc. 1250 nM
  Alpha (Alpha Endpoint read, Bcl-2 ternary complex formation): 970107 and 1023464
[2]; Conc. 5000 nM
  Alpha (Alpha Endpoint read, Bcl-2 ternary complex formation): 185911 and 171854
[2]; Conc. 20000 nM
  Alpha (Alpha Endpoint read, Bcl-2 ternary complex formation): 15128 and 13041
[2]; compound 0.191 nM
  AlphaLISA signal, BCL-2/PROTAC/VCB: 15777 and 15419
[2]; compound 0.763 nM
  AlphaLISA signal, BCL-2/PROTAC/VCB: 15170 and 18328
[2]; compound 3.052 nM
  AlphaLISA signal, BCL-2/PROTAC/VCB: 22062 and 18311
[2]; compound 12.207 nM
  AlphaLISA signal, BCL-2/PROTAC/VCB: 69812 and 70261
[2]; compound 48.828 nM
  AlphaLISA signal, BCL-2/PROTAC/VCB: 478226 and 503248
[2]; compound 195.31 nM
  AlphaLISA signal, BCL-2/PROTAC/VCB: 862665 and 765838
[2]; compound 781.25 nM
  AlphaLISA signal, BCL-2/PROTAC/VCB: 770133 and 699715
[2]; compound 3125 nM
  AlphaLISA signal, BCL-2/PROTAC/VCB: 392514 and 467832
[2]; compound 12500 nM
  AlphaLISA signal, BCL-2/PROTAC/VCB: 47038 and 50161
[2]; compound 50000 nM
  AlphaLISA signal, BCL-2/PROTAC/VCB: 7988 and 8322
[2]; compound 200000 nM, 2 technical replicates
  AlphaLISA signal, BCL-2/PROTAC/VCB: 7003 and 7472
